In patent US20150126467A1, “USE OF ALGINATE OLIGOMERS TO ENHANCE THE EFFECTS OF ANTIFUNGAL AGENTS” (AlgiIPharma AS, priority 2011, published 2015):

How the values were obtained:
[1] = system: Aspergillus niger CCUG 18919; experiment: Robotic MIC assay, Aspergillus (Example 4); type: cell-based; details: A. niger CCUG 18919, 48 hours, Mueller-Hinton broth
Method in brief: (§1)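 Frozen spore/mycelium stocks were used as inoculum, sized for adequate 48 h growth. Two-fold antifungal dilutions were prepared in Mueller-Hinton broth with OligoG CF-5/20 (2, 6 or 10% assay concentrations; quadruplicate wells). Plates were incubated static at 34 °C, with OD600 read at about 24 and 48 h.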

[2] = system: Aspergillus fumigatus CCUG 17460; experiment: Robotic MIC assay, Aspergillus (Example 4); type: cell-based; details: A. fumigatus CCUG 17460, 48 hours, Mueller-Hinton broth
Method in brief: as §1

[3] = system: Cryptococcus neoformans CCUG 23451; experiment: Robotic MIC assay, Cryptococcus neoformans (Example 6); type: cell-based
Protocol: Cryptococcus sp. was grown at 30° C. for 96 h on YM-agar. Spores and aerial mycelium was cut out from the agar, suspended in 1 ml YM-broth and dispersed with glass beads (1 mm) in a mini bead beater for 2 min. The suspension was added glycerol to 10% and frozen at −80° C. Each batch of frozen stock culture was then characterized in separate growth experiments using Mueller-Hinton and RPMI to determine the minimum amount of inoculum giving satisfactory growth after 48 h under the conditions relevant for the MIC assay. This inoculum procedure is used in order to reduce day to day variation in bioassays.
Robotic minimum inhibitory concentration (MIC) assay was performed as follows. OligoG CF-5/20 was dissolved in medium (Mueller-Hinton, RPMI with 2% glucose, Sabouraud or YM) to 1.25 times of the desired assay concentrations (2, 6 and 10%). […].
Two-fold serial dilutions of antifungal agents were made in medium with different concentrations of OligoG CF-5/20, and the solutions were placed in four parallel wells in Nunc 384-well micro plates (30 μl per well in Nunc 242757 microplates). A group of 8 wells with no addition of antifungal agents for each OligoG CF-5/20 concentration was included on each micro plate as growth reference. Each well in the 384-well assay plates was added 7.5 μl of the medium innoculated with frozen stock culture of the relevant strains.
The microplates were placed in plastic bags and incubated without shaking at 34° C. The optical density at 600 nm in the microwells was measured after certain time points from 24 h to 96 h of incubation. […]

[4] = system: C. parapsillosis ATCC 22019T; experiment: Robotic MIC assay, Candida strains (Example 2); type: cell-based, Candida parapsilosis; details: 48 h, Mueller-Hinton broth
Protocol: A robotic MIC Assay was performed as follows. OligoG CF-5/20 were dissolved in medium (Mueller-Hinton broth or M19 broth depending on experiment) to 1.25 times of the desired assay concentrations (2, 6 and 10%). The antifungal agents under test were dissolved in medium without OligoG CF-5/20 and in medium with OligoG CF-5/20 at a concentration of 1.25 times the highest desired assay concentrations. For experiments where the effect of adding different concentrations of Na^+ was investigated, NaCl was dissolved in medium to the desired concentrations (10, 30 and 50 mM).
Two-fold serial dilutions of antifungal agents were made in medium with different concentrations of OligoG CF-5/20, and the solutions were placed in four parallel wells in Nunc 384-well micro plates (30 μl per well in Nunc 242757 microplates). A group of 8 wells with no addition of antifungal agents for each OligoG CF-5/20 concentration was included on each microplate as growth reference. To each well in the 384-well assay plates was added 7.5 μl of medium inoculated with a frozen stock culture of Candida albicans (strain CCUG 39343).
The micro plates were placed in plastic bags and incubated without shaking at 34° C. The optical density at 600 nm in the microwells was measured after approximately 13, 18, 24 and 34 hours of incubation, and the relative growth yield in each well was calculated based on the growth in the reference groups.
The robotic assay described in Example 1 was employed in this Example. Strains were grown in Mueller-Hinton broth (LAB114 from Lab M Limited) and MIC values (μg ml-1) were determined for each antifungal after incubation for 48 h in the presence of 0, 2, 6 and 10% OligoG CF-5/20 G-fragments. […] OligoG CF-5/20 G-fragments were provided by AlgiPharma AS, Norway.
Candida strains used were as follows: • C. albicans CCUG 39343 (strain from culture collection) • C. parapsillosis ATCC 22019T (strain from culture collection) • C. krusei 141/03 (candidosis) • C. krusei 249/03(2) (ulceration) • C. lusitaniae 994/01(2) (candidosis) • C. tropicalis 12 (vaginal) • C. tropicalis 75 (vaginal) • C. tropicalis 519468 (urinary) • C. tropicalis 544123 (urinary) • C. tropicalis 250/03 (candidosis) • C. tropicalis AG1 (oral) • C. tropicalis T2.2 (oral)

Compound: C[C@@H]1[C@H](O)[C@@H](C)/C=C/C=C/CC/C=C/C=C/C=C/C=C/C(O[C@H]2O[C@H](C)[C@@H](O)[C@H](N)[C@@H]2O)CC2O[C@](O)(CC(O)C(O)CCC(O)CC(O)CC(O)CC(=O)O[C@H]1C)CC(O)C2C(=O)O (stereo partly shown) [Nystatin, nystatin]
- Minimum Inhibitory Concentration (MIC) ([1]; 0% OligoG): 8 µg/mL
- Minimum Inhibitory Concentration (MIC) ([1]; 2% OligoG): 4 µg/mL
- Minimum Inhibitory Concentration (MIC) ([1]; 6% OligoG): 2 µg/mL
- Minimum Inhibitory Concentration (MIC) ([1]; 10% OligoG): 0.5 µg/mL
- Minimum Inhibitory Concentration (MIC) ([2]; 0% OligoG): 8 µg/mL
- Minimum Inhibitory Concentration (MIC) ([2]; 2% OligoG): 8 µg/mL
- Minimum Inhibitory Concentration (MIC) ([2]; 6% OligoG): 4 µg/mL
- Minimum Inhibitory Concentration (MIC) ([2]; 10% OligoG): 2 µg/mL
- Minimum Inhibitory Concentration (MIC) ([3]; MH, 0% OligoG, 96 hours): 4 µg/mL
- Minimum Inhibitory Concentration (MIC) ([3]; MH, 2% OligoG, 96 hours): 1 µg/mL
- Minimum Inhibitory Concentration (MIC) ([3]; RPMI 2% GLU, 0% OligoG, 72 hours): 8 µg/mL
- Minimum Inhibitory Concentration (MIC) ([3]; RPMI 2% GLU, 0% OligoG, 96 hours): 8 µg/mL
- Minimum Inhibitory Concentration (MIC) ([3]; RPMI 2% GLU, 2% OligoG, 72 hours): 8 µg/mL
- Minimum Inhibitory Concentration (MIC) ([3]; RPMI 2% GLU, 2% OligoG, 96 hours): 8 µg/mL
- Minimum Inhibitory Concentration (MIC) ([3]; RPMI 2% GLU, 6% OligoG, 72 hours): 4 µg/mL
- Minimum Inhibitory Concentration (MIC) ([3]; RPMI 2% GLU, 6% OligoG, 96 hours): 8 µg/mL
- Minimum Inhibitory Concentration (MIC) ([3]; Sabouraud, 0% OligoG, 72 hours): 2 µg/mL
- Minimum Inhibitory Concentration (MIC) ([3]; Sabouraud, 0% OligoG, 96 hours): 2 µg/mL
- Minimum Inhibitory Concentration (MIC) ([3]; Sabouraud, 2% OligoG, 72 hours): 0.5 µg/mL
- Minimum Inhibitory Concentration (MIC) ([3]; Sabouraud, 2% OligoG, 96 hours): 0.5 µg/mL
- Minimum Inhibitory Concentration (MIC) ([3]; Sabouraud, 6% OligoG, 72 hours): 0.25 µg/mL
- Minimum Inhibitory Concentration (MIC) ([3]; Sabouraud, 6% OligoG, 96 hours): 0.25 µg/mL
- Minimum Inhibitory Concentration (MIC) ([3]; YM, 0% OligoG, 72 hours): 8 µg/mL
- Minimum Inhibitory Concentration (MIC) ([3]; YM, 0% OligoG, 96 hours): 16 µg/mL
- Minimum Inhibitory Concentration (MIC) ([3]; YM, 2% OligoG, 72 hours): 4 µg/mL
- Minimum Inhibitory Concentration (MIC) ([3]; YM, 2% OligoG, 96 hours): 8 µg/mL
- effect on MIC when OligoG is added to the medium ([3]; media: RPMI with 2% glucose, MH, Sabouraud, YM): reduction in MIC in all media tested
- Minimum Inhibitory Concentration (MIC) ([4]; 0% OligoG): 4 µg/mL
- Minimum Inhibitory Concentration (MIC) ([4]; 2% OligoG): 2 µg/mL
- Minimum Inhibitory Concentration (MIC) ([4]; 6% OligoG): 1 µg/mL
- Minimum Inhibitory Concentration (MIC) ([4]; 10% OligoG): 0.5 µg/mL
